{"source": "patent US20230082430A1", "about": "(C4 Therapeutics, Inc., priority 2019, published 2023)"}
{"tested_on": "NCIH929.1 cells", "assay": "Cell viability assay for Table 2 (CellTiter-Glo 2.0, ATP quantification, 96 hr)", "assay_type": "cell-based", "details": "96 h, NCIH929.1 cell viability, 96 hr, top concentration 1 μM, 14 points half log titration; read-out: IC50", "from_the_text": "(§1) Cell Viability Assay for Table 2\n(§2) CellTiter-Glo® 2.0 Assay was purchased from Promega (Madison, Wis., USA). NCIH929.1 cell line was purchased from ATCC (Manassas, Va., USA). Cell culture flasks and 384-well microplates were acquired from VWR (Radnor, Pa., USA).", "units": {"IC50": "nM"}}
{"compound": "Cc1cc(Cc2ccc3c4c(cccc24)C(=O)N3C2CCC(=O)NC2=O)ccc1CN1CCN(c2ccccc2F)CC1", "note": "(stereo not shown) [Compound 286, 3-[6-[[4-[[4-(2-fluorophenyl)piperazin-1-yl]methyl]-3-methyl-phenyl]methyl]-2-oxo-benzo[cd]indol-1-yl]piperidine-2,6-dione]", "IC50": "< 1"}
{"compound": "CC1(n2cc(Cc3ccc4c5c(cccc35)C(=O)N4C3CCC(=O)NC3=O)cn2)CCN(C(=O)C23CCN(CC2)CC3)CC1", "note": "(stereo not drawn) [Compound 73, 3-(6-((l-(4-methyl-1-(quinuclidine-4-carbonyl)piperidin-4-yl)-1H-pyrazol-4-yl)methyl)-2-oxobenzo[cd]indol-1(2H)-yl)piperidine-2,6-dione]", "IC50": "< 100"}
{"compound": "O=C1CCC(N2C(=O)c3cccc4c(Cc5ccc(CN6CCC(Oc7ccc(F)cc7)CC6)cc5)ccc2c34)C(=O)N1", "note": "(stereo not shown) [Compound 258, 3-(6-(4-((4-(4-fluorophenoxy)piperidin-1-yl)methyl)benzyl)-2-oxobenzo[cd]indol-1(2H)-yl)piperidine-2,6-dione]", "IC50": "< 1"}
{"compound": "CC1(n2cc(Cc3ccc4c5c(cccc35)C(=O)N4C3CCC(=O)NC3=O)cn2)CCN(C(=O)C2(C(F)F)CC2)CC1", "note": "(stereo not shown) [Compound 76, 3-(6-((1-(1-(1-(difluoromethyl)cyclopropane-1-carbonyl)-4-methylpiperidin-4-yl)-1H-pyrazol-4-yl)methyl)-2-oxobenzo[cd]indol-1(2H)-yl)piperidine-2,6-dione]", "IC50": "< 1"}
{"compound": "CC(C)(C)C[C@H]1CC[C@@H](n2cc(Cc3ccc4c5c(cccc35)C(=O)N4C3CCC(=O)NC3=O)cn2)CC1", "note": "(stereo partly shown) [Compound 259, 3-(6-((1-((1r,4r)-4-neopentylcyclohexyl)-1H-pyrazol-4-yl)methyl)-2-oxobenzo[cd]indol-1(2H)-yl)piperidine-2,6-dione]", "IC50": "< 1"}
{"compound": "O=C1CCC(N2C(=O)c3cccc4c(Cc5ccc(CN6CC7(COC7)C6)cc5)ccc2c34)C(=O)N1", "note": "(stereo not shown) [Compound 230, 3-(6-(4-((2-oxa-6-azaspiro[3.3)heptan-6-yl)methyl)benzyl)-2-oxobenzo[cd]indol-1(2H)-yl)piperidine-2,6-dione]", "IC50": "< 1"}
{"compound": "COC1(CN2CCC(C)(n3cc(Cc4ccc5c6c(cccc46)C(=O)N5C4CCC(=O)NC4=O)cn3)CC2)CC1", "note": "(stereo not shown) [Compound 101, 3-(6-((1-(1-((1-methoxycyclopropyl)methyl)-4-methylpiperidin-4-yl)-1H-pyrazol-4-yl)methyl)-2-oxobenzo[cd]indol-1(2H)-yl)piperidine-2,6-dione]", "IC50": "< 1"}
{"compound": "O=C1CCC(N2C(=O)c3cccc4c(Cc5ccc(CN6CCC(Cc7ccc(F)cc7)CC6)cc5)ccc2c34)C(=O)N1", "note": "(stereo not shown) [Compound 157, 3-[6-[[4-[[4-[(4-fluorophenyl)methyl]-1-piperidyl]methyl]phenyl]methyl]-2-oxo-benzo[cd]indol-1-yl]piperidine-2,6-dione]", "IC50": "< 1"}
{"compound": "CC1(n2cc(Cc3ccc4c5c(cccc35)C(=O)N4C3CCC(=O)NC3=O)cn2)CCN(C(=O)C2(C(F)(F)F)CCC2)CC1", "note": "(stereo not shown) [Compound 78, 3-(6-((1-(4-methyl-1-(1-(trifluoromethyl)cyclobutane-1-carbonyl)piperidin-4-yl)-1H-pyrazol-4-yl)methyl)-2-oxobenzo[cd]indol-1(2H)-yl)piperidine-2,6-dione]", "IC50": "< 1"}
{"compound": "CC1(C(=O)N2CCC(n3cc(C(N)c4ccc5c6c(cccc46)C(=O)N5C4CCC(=O)NC4=O)cn3)CC2)CCC1", "note": "(stereo not shown) [Compound 153, 3-(6-(amino(1-(1-(1-methylcyclobutane-1-carbonyl)piperidin-4-yl)-1H-pyrazol-4-yl)methyl)-2-oxobenzo[cd]indol-1(2H)-yl)piperidine-2,6-dione]", "IC50": "< 1"}
{"compound": "CC(C)(Cl)C(=O)N1CCC(C)(n2cc(Cc3ccc4c5c(cccc35)C(=O)N4C3CCC(=O)NC3=O)cn2)CC1", "note": "(stereo not shown) [Compound 97, 3-(6-((1-(1-(2-chloro-2-methylpropanoyl)-4-methylpiperidin-4-yl)-1H-pyrazol-4-yl)methyl)-2-oxobenzo[cd]indol-1(2H)-yl)piperidine-2,6-dione]", "IC50": "< 1"}
{"compound": "O=C1CCC(N2C(=O)c3cccc4c(Cc5ccc(CN6CCCOCC6)cc5)ccc2c34)C(=O)N1", "note": "(stereo not shown) [Compound 123, 3-(6-(4-((1,4-oxazepan-4-yl)methyl)benzyl)-2-oxobenzo[cd]indol-1(2H)-yl)piperidine-2,6-dione]", "IC50": "< 1"}
{"compound": "CC(C1CC1)N1CCC(n2cc(Cc3ccc4c5c(cccc35)C(=O)N4C3CCC(=O)NC3=O)cn2)CC1", "note": "(single isomer, unassigned) [Compound 282, 3-(6-((1-(1-(1-cyclopropylethyl)piperidin-4-yl)-1H-pyrazol-4-yl)methyl)-2-oxobenzo[cd]indol-1(2H)-yl)piperidine-2,6-dione]", "IC50": "< 1"}
{"compound": "O=C1CCC(N2C(=O)c3cccc4c(Cc5ccc(CN6CC(Oc7ccc(F)cc7)C6)cc5)ccc2c34)C(=O)N1", "note": "(stereo not shown) [Compound 120, 3-(6-(4-((3-(4-fluorophenoxy)azetidin-1-yl)methyl)benzyl)-2-oxobenzo[cd]indol-1(2H)-yl)piperidine-2,6-dione]", "IC50": "< 1"}
{"compound": "N#Cc1ccc(N2CCN(Cc3ccc(Cc4ccc5c6c(cccc46)C(=O)N5C4CCC(=O)NC4=O)cc3)CC2)c(F)c1", "note": "(single isomer, unassigned) [Compound 184, 4-(4-(4-((1-(2,6-dioxopiperidin-3-yl)-2-oxo-1,2-dihydrobenzo[cd]indol-6-yl)methyl)benzyl)piperazin-1-yl)-3-fluorobenzonitrile]", "IC50": "< 1"}
{"compound": "CC(C)(CF)C(=O)N1CCC(C)(n2cc(Cc3ccc4c5c(cccc35)C(=O)N4C3CCC(=O)NC3=O)cn2)CC1", "note": "(stereo not shown) [Compound 95, 3-(6-((1-(1-(3-fluoro-2,2-dimethylpropanoyl)-4-methylpiperidin-4-yl)-1H-pyrazol-4-yl)methyl)-2-oxobenzo[cd]indol-1(2H)-yl)piperidine-2,6-dione]", "IC50": "< 1"}
{"compound": "CC1(C(=O)N2CCN(C3(c4ccc(Cc5ccc6c7c(cccc57)C(=O)N6C5CCC(=O)NC5=O)cc4)CC3)CC2)CCC1", "note": "(stereo not shown) [Compound 263, 3-[6-(4-{1-[4-(1-Methyl-cyclobutanecarbonyl)-piperazin-1-yl]-cyclopropyl}-benzyl)-2-oxo-2H-benzo[cd]indol-1-yl]-piperidine-2,6-dione]", "IC50": "< 1"}
{"compound": "CC1(C(=O)N2CCC(n3cc(Nc4ccc5c6c(cccc46)C(=O)N5C4CCC(=O)NC4=O)c(Cl)n3)CC2)CCC1", "note": "(stereo not shown) [Compound 251, 3-[6-[[3-chloro-1-[1-(1-methylcyclobutanecarbonyl)-4-piperidyl]pyrazol-4-yl]amino]-2-oxo-benzo[cd]indol-1-yl]piperidine-2,6-dione]", "IC50": "< 100"}
{"compound": "O=C1CCC(N2C(=O)c3cccc4c(Cc5ccc(CN6CCN(C(=O)c7ccccc7)CC6)cc5)ccc2c34)C(=O)N1", "note": "(stereo not shown) [Compound 111, 3-(6-(4-((4-benzoylpiperazin-1-yl)methyl)benzyl)-2-oxobenzo[cd]indol-1(2H)-yl)piperidine-2,6-dione]", "IC50": "< 1"}
{"compound": "CC1(C(=O)N2CCN(c3ccc(Cc4ccc5c6c(cccc46)C(=O)N5C4CCC(=O)NC4=O)cc3)CC2)CCC1", "note": "(stereo not shown) [Compound 167, 3-[6-[[4-[4-(1-methylcyclobutanecarbonyl)piperazin-1-yl]phenyl]methyl]-2-oxo-benzo[cd]indol-1-yl]piperidine-2,6-dione]", "IC50": "< 1"}
{"compound": "CC1(n2cc(Cc3ccc4c5c(cccc35)C(=O)N4C3CCC(=O)NC3=O)cn2)CCN(CC2(F)CC2)CC1", "note": "(stereo not shown) [Compound 106, 3-(6-((1-(1-((1-fluorocyclopropyl)methyl)-4-methylpiperidin-4-yl)-1H-pyrazol-4-yl)methyl)-2-oxobenzo[cd]indol-1(2H)-yl)piperidine-2,6-dione]", "IC50": "< 1"}
{"compound": "N#Cc1ccc(N2CCC(Oc3ccc(Cc4ccc5c6c(cccc46)C(=O)N5C4CCC(=O)NC4=O)cc3)CC2)c(F)c1", "note": "(stereo not shown) [Compound 171, 4-[4-[4-[[1-(2,6-dioxo-3-piperidyl)-2-oxo-benzo[cd]indol-6-yl]methyl]phenoxy]-1-piperidyl]-3-fluoro-benzonitrile]", "IC50": "< 1"}
{"compound": "C#CCOc1ccc2c3c(cccc13)C(=O)N2C1CCC(=O)NC1=O", "note": "(stereo not shown) [Compound 137, 3-(2-oxo-6-prop-2-ynoxy-benzo[cd]indol-1-yl)piperidine-2,6-dione]", "IC50": "< 100"}
{"compound": "CC1(CN2CCC(n3cc(Cc4ccc5c6c(cccc46)C(=O)N5C4CCC(=O)NC4=O)cn3)C(F)(F)C2)CCC1", "note": "(single isomer, unassigned) [Compound 186, 3-[6-[[1-[3,3-difluoro-1-[(1-methylcyclobutyl)methyl]-4-piperidyl]pyrazol-4-yl]methyl]-2-oxo-benzo[cd]indol-1-yl]piperidine-2,6-dione]", "IC50": "< 1"}
{"compound": "COC(=O)c1ccc2c3c(cccc13)C(=O)N2C1CCC(=O)NC1=O", "note": "(stereo not shown) [Compound 124, methyl 1-(2,6-dioxo-3-piperidyl)-2-oxo-benzo[cd]indole-6-carboxylate]", "IC50": "> 999"}
{"compound": "CC1(n2cc(Cc3ccc4c5c(cccc35)C(=O)N4C3CCC(=O)NC3=O)cn2)CCN(C(=O)C2(C#N)CCC2)CC1", "note": "(stereo not shown) [Compound 86, 1-(4-(4-((1-(2,6-dioxopiperidin-3-yl)-2-oxo-1,2-dihydrobenzo[cd]indol-6-yl)methyl)-1H-pyrazol-1-yl)-4-methylpiperidine-1-carbonyl)cyclobutane-1-carbonitrile]", "IC50": "< 1"}
{"tested_on": "NCIH929.1 cells", "assay": "Cell viability assay for Table 2 (CellTiter-Glo 2.0, ATP quantification, 96 hr)", "assay_type": "cell-based", "details": "NCIH929.1 cell viability, 96 hr, top concentration 1 μM, 14 points half log titration; read-out: IC50", "from_the_text": "as §1, §2", "units": {"IC50": "nM"}}
{"compound": "O=C1CCC(N2C(=O)c3cccc4c(Cc5ccc(CN6CCN(c7ccc(Cl)cc7F)CC6)cc5)ccc2c34)C(=O)N1", "note": "(single isomer, unassigned) [Compound 255, 3-[6-[[4-[[4-(4-chloro-2-fluoro-phenyl)piperazin-1-yl]methyl]phenyl]methyl]-2-oxo-benzo[cd]indol-1-yl]piperidine-2,6-dione]", "IC50": "< 1"}
{"compound": "CC(C)(C)OC(=O)N1CCC(n2cc(Cc3ccc4c5c(cccc35)C(=O)N4C3CCC(=O)NC3=O)cn2)CC1", "note": "(single isomer, unassigned) [Compound 142, tert-butyl 4-[4-[[1-[2,6-dioxo-3-piperidyl]-2-oxo-benzo[cd]indol-6-yl]methyl]pyrazol-1-yl]piperidine-1-carboxylate]", "IC50": "< 1"}
